This is an account of results in ChEMBL document CHEMBL1147642, “Elimination of antibacterial activities of non-peptide luteinizing hormone-releasing hormone (LHRH) antagonists derived from erythromycin A” (Bioorg Med Chem Lett, 2004).

The target of assay [1] is T1, Gonadotropin-releasing hormone receptor (Homo sapiens, UniProt P30968).
T1 sequence (P30968 whole entry): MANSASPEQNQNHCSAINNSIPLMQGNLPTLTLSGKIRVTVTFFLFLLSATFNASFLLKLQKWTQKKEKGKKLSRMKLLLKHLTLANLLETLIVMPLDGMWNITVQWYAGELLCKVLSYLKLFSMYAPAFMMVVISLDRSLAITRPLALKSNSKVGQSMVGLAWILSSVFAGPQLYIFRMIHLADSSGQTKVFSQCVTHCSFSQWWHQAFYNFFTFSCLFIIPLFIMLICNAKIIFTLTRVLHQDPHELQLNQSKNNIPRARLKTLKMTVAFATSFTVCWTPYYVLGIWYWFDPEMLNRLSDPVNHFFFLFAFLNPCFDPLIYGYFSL
Nature of the assay: Binding affinity against human luteinizing releasing hormone receptor cloned in CHO cells. The format is cell-based.

In a further assay the test system is Streptococcus agalactiae. Kind of assay: Minimum inhibitory activity against Streptococcus agalactiae CMX 508. The class given is functional.
For another assay, the system named is Staphylococcus aureus. Kind of assay: Minimum inhibitory activity against Staphylococcus aureus ATCC 6538P. The format is functional.
The subject of the next assay is Streptococcus pyogenes. Nature of the assay: Minimum inhibitory activity against Streptococcus pyogenes EES61. The class given is functional.
In a further assay the test system is Enterococcus faecium. Nature of the assay: Minimum inhibitory activity against Enterococcus faecium ATCC 8043. The format is functional.
For the next assay, the system named is Streptococcus equinus. Kind of assay: Minimum inhibitory activity against Streptococcus bovis A-5169. The class given is functional.
Assay [2] concerns Staphylococcus epidermidis. Kind of assay: Minimum inhibitory activity against Staphylococcus epidermidis 3519. The class given is functional.
A further assay has as its system Micrococcus luteus. Kind of assay: Minimum inhibitory activity against Micrococcus luteus ATCC 9341. The format is functional.

Converted amounts (≈) assume the structure as drawn. A value given as a limit tells only on which side of the number the result lay.

Turning to `CC[C@H]1OC(=O)[C@H](C)[C@@H](OC(=O)N2C(=O)OC[C@@H]2C)[C@H](C)[C@@H](OC2O[C@H](C)C[C@H](N(CC3CC3)CC3CC3)[C@H]2O)[C@@](C)(OC)C[C@@H](C)C(=O)[C@H](C)[C@H]2N(CCc3ccc(Cl)c(Cl)c3)C(=O)O[C@]12C` (stereo partly drawn), in assay [1], the affinity, expressed as Ki, was 1.29 nM. In addition, the MIC with Streptococcus agalactiae is 100 µg/mL (≈ 100 µM); in the assay with Staphylococcus aureus, above 100 µg/mL; in the assay on Streptococcus pyogenes, 50 µg/mL (≈ 50.2 µM); against Enterococcus faecium, above 100 µg/mL; against Streptococcus equinus, 50 µg/mL (≈ 50.2 µM); in assay [2] it was above 100 µg/mL. This molecule displayed an MIC against Micrococcus luteus of 100 µg/mL (≈ 100 µM).
